Measured values from publication PMC2556091 (The EMBO Journal, 2008).

Biological target: T1, XcOGT (Xanthomonas campestris, UniProt Q8PC69)
T1 sequence (Q8PC69 1-568): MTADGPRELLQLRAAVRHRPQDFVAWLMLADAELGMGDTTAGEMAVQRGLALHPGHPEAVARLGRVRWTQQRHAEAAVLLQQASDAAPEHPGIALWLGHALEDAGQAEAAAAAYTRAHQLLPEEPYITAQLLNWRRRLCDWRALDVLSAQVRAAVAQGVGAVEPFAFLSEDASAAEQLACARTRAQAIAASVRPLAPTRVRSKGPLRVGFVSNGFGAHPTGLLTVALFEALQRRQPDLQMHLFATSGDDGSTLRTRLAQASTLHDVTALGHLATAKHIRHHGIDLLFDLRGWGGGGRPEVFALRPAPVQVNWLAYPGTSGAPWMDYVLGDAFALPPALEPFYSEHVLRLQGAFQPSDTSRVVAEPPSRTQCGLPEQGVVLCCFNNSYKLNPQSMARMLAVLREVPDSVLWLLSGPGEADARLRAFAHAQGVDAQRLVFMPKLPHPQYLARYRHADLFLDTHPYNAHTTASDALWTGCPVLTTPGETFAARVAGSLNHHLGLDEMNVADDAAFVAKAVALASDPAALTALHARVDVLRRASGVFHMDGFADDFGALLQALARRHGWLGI
Assay: surface plasmon resonance
Format: binding

CC(=O)N[C@H]1[C@@H](OP(=O)(O)OP(=O)(O)OC[C@H]2O[C@@H](n3ccc(=O)[nH]c3=O)[C@H](O)[C@@H]2O)O[C@H](CO)[C@@H](O)[C@@H]1O [UDP-GlcNAc]
Kd: 4.2 µM
